# Calls of active or inactive are those of the source. No cut-off for these calls is given here. Where a SMILES comes first, the peptide text is derived from it. Bridges are numbered along the chain shown (N, C = ends).
# Assays:
# [1] = molecular target: Vascular endothelial growth factor receptor 2 (Homo sapiens) (UniProt P35968); test: Inhibition of VEGFR2 phosphorylation in VEGF165-stimulated HUVEC at 100 uM treated for 1 hr before VEGF165 challenge measured after 5 mins by Western blot analysis; type: cell-based
# Chain of Vascular endothelial growth factor receptor 2 (Homo sapiens) (P35968 whole entry, the tested form may be a part): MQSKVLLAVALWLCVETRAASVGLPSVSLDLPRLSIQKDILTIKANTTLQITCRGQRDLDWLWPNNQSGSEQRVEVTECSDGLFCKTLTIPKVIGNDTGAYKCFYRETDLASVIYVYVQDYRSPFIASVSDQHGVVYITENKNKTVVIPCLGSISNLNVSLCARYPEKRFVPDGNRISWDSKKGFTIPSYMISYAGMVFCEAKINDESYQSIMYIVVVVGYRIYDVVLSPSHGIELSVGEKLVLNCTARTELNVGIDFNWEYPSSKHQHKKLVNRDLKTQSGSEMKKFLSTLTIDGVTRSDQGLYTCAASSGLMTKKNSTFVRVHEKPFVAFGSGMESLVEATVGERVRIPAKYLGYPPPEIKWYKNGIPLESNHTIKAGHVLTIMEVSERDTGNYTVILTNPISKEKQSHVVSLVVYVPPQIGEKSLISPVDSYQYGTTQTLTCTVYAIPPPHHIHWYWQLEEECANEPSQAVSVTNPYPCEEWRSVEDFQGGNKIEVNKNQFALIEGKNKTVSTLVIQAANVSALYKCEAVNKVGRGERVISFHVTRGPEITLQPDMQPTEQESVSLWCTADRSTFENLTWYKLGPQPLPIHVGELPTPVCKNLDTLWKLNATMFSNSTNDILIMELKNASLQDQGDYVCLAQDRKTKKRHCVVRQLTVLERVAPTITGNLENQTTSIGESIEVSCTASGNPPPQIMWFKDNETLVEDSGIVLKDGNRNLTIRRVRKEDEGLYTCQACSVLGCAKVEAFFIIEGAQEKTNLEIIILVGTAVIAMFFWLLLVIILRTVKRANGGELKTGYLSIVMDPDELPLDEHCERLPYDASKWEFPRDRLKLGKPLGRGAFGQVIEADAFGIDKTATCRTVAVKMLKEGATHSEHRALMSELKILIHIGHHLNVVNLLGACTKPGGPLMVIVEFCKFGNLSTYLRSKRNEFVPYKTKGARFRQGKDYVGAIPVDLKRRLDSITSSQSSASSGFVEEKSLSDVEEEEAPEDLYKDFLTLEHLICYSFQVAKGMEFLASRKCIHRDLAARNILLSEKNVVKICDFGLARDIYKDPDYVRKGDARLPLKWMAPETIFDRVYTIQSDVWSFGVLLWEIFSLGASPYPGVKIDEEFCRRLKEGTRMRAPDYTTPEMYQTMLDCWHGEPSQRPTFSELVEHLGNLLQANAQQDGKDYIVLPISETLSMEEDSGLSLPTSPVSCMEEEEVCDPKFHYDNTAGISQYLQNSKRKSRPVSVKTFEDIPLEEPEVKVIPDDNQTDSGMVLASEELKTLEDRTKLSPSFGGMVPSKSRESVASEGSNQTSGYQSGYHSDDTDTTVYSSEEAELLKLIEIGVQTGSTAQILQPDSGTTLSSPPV
# [2] = molecular target: Vascular endothelial growth factor receptor 2 (Homo sapiens) (UniProt P35968); test: Inhibition of VEGFR2 phosphorylation in VEGF165-stimulated HUVEC treated for 1 hr before VEGF165 challenge measured after 5 mins by Western blot analysis; type: cell-based
# [3] = molecular target: Vascular endothelial growth factor receptor 2 (Homo sapiens) (UniProt P35968); test: Inhibition of VEGFR2 phosphorylation in VEGF165-stimulated HUVEC at 10 uM treated for 1 hr before VEGF165 challenge measured after 5 mins by Western blot analysis; type: cell-based
# [4] = molecular target: Vascular endothelial growth factor receptor 2 (Homo sapiens) (UniProt P35968); test: Inhibition of VEGFR2 phosphorylation in VEGF165-stimulated HUVEC at 3 uM treated for 1 hr before VEGF165 challenge measured after 5 mins by Western blot analysis
# [5] = molecular target: Vascular endothelial growth factor receptor 2 (Homo sapiens) (UniProt P35968); test: Inhibition of VEGFR2 phosphorylation in VEGF165-stimulated HUVEC at 33 uM treated for 1 hr before VEGF165 challenge measured after 5 mins by Western blot analysis; type: cell-based
# HUVEC [6] = conditions: Homo sapiens, 100 uM
# Description: Inhibition of VEGFR in HUVEC assessed as inhibition of VEGF165-induced ERK1/2 phosphorylation at 100 uM treated for 1 hr before VEGF165 challenge measured after 15 mins by Western blot analysis
# HUVEC [7] = conditions: Homo sapiens, 33 uM
# Description: Inhibition of VEGFR in HUVEC assessed as inhibition of VEGF165-induced ERK1/2 phosphorylation at 33 uM treated for 1 hr before VEGF165 challenge measured after 15 mins by Western blot analysis
# HUVEC [8] = conditions: Homo sapiens, 10 uM
# HUVEC [9] = conditions: Homo sapiens, 3 uM
# Description: Inhibition of VEGFR in HUVEC assessed as inhibition of VEGF165-induced ERK1/2 phosphorylation at 3 uM treated for 1 hr before VEGF165 challenge measured after 15 mins by Western blot analysis
# [10] = molecular target: Vascular endothelial growth factor receptor 2 (Homo sapiens) (UniProt P35968); test: Binding affinity to human recombinant VEGFR2 extracellular domain immobilized in CNBr-activated sepharose at 25 nmol after 5 mins by pull-down assay
inhibition [1],SMILES,also measured
Active,CC(C)C[C@@H]1NC(=O)[C@H](CCCCN)NC(=O)[C@H](CCC(=O)O)NC(=O)[C@H](CC(=O)O)NC(=O)[C@H](Cc2ccc(O)cc2)NC(=O)[C@H](Cc2ccc(O)cc2)NC(=O)CC[C@@H](C(N)=O)NC(=O)[C@H](CCC(=O)O)NC1=O (YYDEKLEE-NH2; lactam N-8),
Active,CC(C)C[C@@H]1NC(=O)CNC(=O)[C@H](CCC(=O)O)NC(=O)[C@H](CC(=O)O)NC(=O)[C@H](Cc2ccc(O)cc2)NC(=O)[C@H](Cc2ccc(O)cc2)NC(=O)CC[C@@H](C(N)=O)NC(=O)[C@H](CCC(=O)O)NC1=O (YYDEGLEE-NH2; lactam N-8),inhibition [2]: Dose-dependent effect; inhibition [3]: Active; inhibition [4]: inactive; inhibition [5]: Active; inhibition (HUVEC [6]): Active; inhibition (HUVEC [7]): Active; inhibition (HUVEC [8]): Active; inhibition (HUVEC [9]): inactive
inactive,CC(C)C[C@@H]1NC(=O)CNC(=O)[C@H](CCC(=O)O)NC(=O)[C@H](CC(=O)O)NC(=O)[C@H](Cc2ccc(O)cc2)NC(=O)[C@H](Cc2ccc(O)cc2)NC(=O)CC[C@@H](C(N)=O)NC(=O)[C@H](C)NC1=O (YYDEGLAE-NH2; lactam N-8),
inactive,CC(C)C[C@@H]1NC(=O)CNC(=O)[C@H](CCC(=O)O)NC(=O)[C@H](CC(=O)O)NC(=O)[C@H](Cc2ccc(O)cc2)NC(=O)[C@H](C)NC(=O)CC[C@@H](C(N)=O)NC(=O)[C@H](CCC(=O)O)NC1=O (AYDEGLEE-NH2; lactam N-8),
inactive,CC(C)C[C@@H]1NC(=O)CNC(=O)[C@H](CCC(=O)O)NC(=O)[C@H](CC(=O)O)NC(=O)[C@H](C)NC(=O)[C@H](Cc2ccc(O)cc2)NC(=O)CC[C@@H](C(N)=O)NC(=O)[C@H](CCC(=O)O)NC1=O (YADEGLEE-NH2; lactam N-8),
Active,CC(C)C[C@@H]1NC(=O)CNC(=O)[C@H](CCC(=O)O)NC(=O)[C@H](CC(=O)O)NC(=O)[C@H](CCCCN)NC(=O)[C@H](Cc2ccc(O)cc2)NC(=O)CC[C@@H](C(N)=O)NC(=O)[C@H](CCC(=O)O)NC1=O (YKDEGLEE-NH2; lactam N-8),
inactive,CC(C)C[C@@H]1NC(=O)CNC(=O)[C@H](C)NC(=O)[C@H](CC(=O)O)NC(=O)[C@H](Cc2ccc(O)cc2)NC(=O)[C@H](Cc2ccc(O)cc2)NC(=O)CC[C@@H](C(N)=O)NC(=O)[C@H](CCC(=O)O)NC1=O (YYDAGLEE-NH2; lactam N-8),
Active,CC(C)C[C@@H]1NC(=O)CNC(=O)[C@H](CCC(=O)O)NC(=O)[C@H](CCCCN)NC(=O)[C@H](Cc2ccc(O)cc2)NC(=O)[C@H](Cc2ccc(O)cc2)NC(=O)CC[C@@H](C(N)=O)NC(=O)[C@H](CCC(=O)O)NC1=O (YYKEGLEE-NH2; lactam N-8),Activity [10]: inactive
inactive,C[C@@H]1NC(=O)CNC(=O)[C@H](CCC(=O)O)NC(=O)[C@H](CC(=O)O)NC(=O)[C@H](Cc2ccc(O)cc2)NC(=O)[C@H](Cc2ccc(O)cc2)NC(=O)CC[C@@H](C(N)=O)NC(=O)[C@H](CCC(=O)O)NC1=O (YYDEGAEE-NH2; lactam N-8),

# Reference: ChEMBL document CHEMBL1155516, “Biochemical and structural analysis of the binding determinants of a vascular endothelial growth factor receptor peptidic antagonist” (J Med Chem, 2010)
